# Source: patent US5728684A, “Determination of prodrugs metabolizable by the liver and therapeutic use thereof” (priority 1994, dated 1998)
# Entries after “also recorded” stand apart in the source; their conditions may differ. Read-outs that look alike come from different tables or passages of the source.
# Key:
# IPdR oxidase = experiment: Effect of inhibitors on the oxidation of IPdR to IUdR by liver homogenate; type: biochemical, rat; details: for IC50: liver homogenate, read-out: IC50 (concentration at 50% inhibition of the conversion of IPdR to IUdR); for product inhibition: at 50 mM
# Experimental: (§1) Rat hepatic tissue was washed with ice-cold 1.15% KCl and blotted dry. The tissue was then homogenized with a tissue homogenizer, in a volume of 1.15% KCl that was 3 times the tissue weight, to form a 25% (w/v) homogenate. The homogenate was then centrifuged at 10,000 g for 10 minutes at 4° C. The resulting supernatant was filtered through Miracloth (similar to cheese cloth) then dialyzed overnight against 50 mM Tris-HCl buffer pH 7.5 and stored at -80° C. before use. Rat hepatocytes were obtained by a perfusion technique then the cells were extracted with 10 mM phosphate buffer, pH 7.5, containing 1M KCl and dialyzed for 4 hours against 50 mM Tris-HCl buffer pH 7.5.
# (§2) For the standard assay condition, the reaction mixture contained 50 mM Tris-HCl, pH 7.5, 1 mM EDTA, 180 μM of IPdR (or its analogs) and approximately 0.01 mg protein of 10,000 g supernatant of tissue homogenate in a final volume of 500 μl and the incubation was at 37° C. for 10 minutes unless specified otherwise. 300 μl of reaction mixture was removed at the end of incubation and mixed with 630 μl acetonitrile then agitated. The precipitated protein were removed by centrifugation and the supernatant was lyophilized to dryness. The samples were reconstituted to the original aliquot volume with the HPLC mobile phase buffer and analyzed on a Alltech RP-18 column. IPdR, IUdR and IU were detected at a UV absorption wavelength of 230 nm, and IPdR was also detected at a UV absorption wavelength of 335 nm. The mobile phase was 10% acetonitrile/90%mM ammonium acetate, pH 6.8 and the flow rate was 1 ml/minute. Standard curves of IPdR and IUdR were established from the integration value of known concentrations.
# aldehyde oxidase [1] = details: cited from earlier work
# aldehyde oxidase [2] = experiment: Substrate specificity of the conversion of RPdR to RUdR; type: in vitro ADME, rat; details: for Conversion of RPdR to RUdR / Products of the reaction: substrate 180 μM; for Conversion of RPdR to RUdR: 2 to 4 separate experiments, in nmol/mg/min
# Experimental: as §1, §2
# (§3) Several 2-pyrimidinone deoxyribose analogs were examined for the conversion to their deoxyuridine counterparts. […] Nevertheless the relative Vmax for IPdR in the reaction at pH 7.5 and pH 9.5 is the same. […] The synthetic substrates for aldehyde oxidase appear to be better than its natural substrates, N^1 -methylnicotinamide and acetaldehyde, as judged by the potency of inhibition of N^1 -methylnicotinamide and acetaldehyde to the IPdR oxidation reaction (Table IV). The rate of reactivity of the liver enzyme with different IPdR analogs follows the order EPdR, IP, IPdR, 5-bromo-2-pyrimidinone deoxyribose (BPdR) and 5-methyl-2-pyrimidinone deoxyribose (MPdR) or 5-ethyl-2-pyrimidinone deoxyribose (EtPdR) (Table V). Electronegative substituents in the 5-position seemed to increase the substrate activity in this oxidation reaction.
# Substrate specificity of the conversion of […]
# [3] = cited from earlier work; for catabolism to the free base: followed by dehalogenation; for cytotoxicity limiting effective use as radiosensitizer: in vivo
# [4] = Michaelis constant / Vmax of 2-pyrimidinone deoxyribose analogs with the liver enzyme; type: biochemical, rat; details: rat, liver aldehyde oxidase
# Experimental: as §1, §2, §3
# hepatic aldehyde oxidase [5] = experiment: Conversion of prodrugs to active compound in vivo
# Text: (§4) As most nucleosides and nucleoside bases include keto groups in their formula and many are structurally related to the structure of uracil, it is expected that bio-affecting compounds which are analogs of nucleosides and nucleoside bases are prime candidates for bio-affecting compounds for which prodrugs in accordance with the present invention can be designed, metabolizable by hepatic aldehyde oxidase into such compounds. Thus, in addition to uracil and uridine analogs, analogs of other nucleosides and nucleoside bases, such as cytidine, guanosine, 6-azauridine and 8-azaguanine analogs, may be used as the basis of the formation of prodrugs in accordance with the present invention. Examples of bio-affecting compounds in this category include ddG, DHPG, ACV, ddI, D4T and AZT.
# colon 38 cells = experiment: Colon 38 tumor weight in mice; type: in vivo, mouse; details: FU 25 and 50, FP 50 and 100 mg/kg daily oral
# Experimental: (§5) Mice were injected with colon 38 cells and were either not treated or treated with daily treatments of 25 and 50 mg/kg FU and 50 and 100 mg/kg FP were given orally to the mice and the change in tumor weight was measured over time.
# [6] = Toxicity of FU and FP in BDF1 mice; type: in vivo; details: mouse, in vivo, po, daily, Day 1,2,3,4,5
# Experimental: (§6) BDF1 mice were administered daily oral dosages of either 50, 75 or 100 mg/kg of FU or 100, 150 or 200 mg/kg of FP. The survival rates of each are presented in chart and graphic forms in Table VI and FIGS. 2 and 3.
# BDF1 mice = experiment: Toxicity of FU and FP in BDF1 mice; type: in vivo; details: for Death/Total: Day 1,2,3,4,5
# Experimental: as §6
# Transgenic mice = experiment: Treatment of transgenic mice expressing SV40 large tumor antigen; type: in vivo, mouse
# Experimental: Transgenic mice obtained according to the method of Sepulveda et al., Cancer Research 49:6108-6117 (1989) were administered beginning at nine weeks after birth in a female and male, wherein the treatment group received 100 mg/kg two times per day, once per week.
# P388-R leukemia cells = experiment: Survival time of mice bearing P388-R leukemia cells; type: in vivo, mouse; details: for Cures/Total / ILS (increase in life span over controls): daily on Day 1,2,3,4,5
# Experimental: (§7) Mice were injected with 100,000 P388-R leukemia cells to induce a leukemia. These cells were resistant to Adriamycin. Daily treatments of 25 and 50 mg/kg FU and 50 and 100 mg/kg FP were given orally to these leukemic mice and the duration of survival was measured. The results are given in tabular and graphic form in Table VII and FIG. 4.
# Inoculum: 10^6 P388R cells into each mouse (i.p.)
# hepatic aldehyde oxidase [7] = experiment: Metabolism of prodrugs by hepatic aldehyde oxidase in vitro / in vivo; type: in vitro ADME
# Text: as §4
# [8] = system: leukemia and colon cancer; experiment: Therapeutic effectiveness of FP versus FU in leukemia and colon cancer; type: in vivo, mouse; details: oral FP
# Text: There are other occasions besides the treatment of liver-associated diseases when the administration of a prodrug will be preferred to the administration of the bio-affecting compound which is formed from such prodrugs. For example, many drugs are not orally administrable for any of a variety of reasons. Oral administration of a prodrug from which the active compound is released in the liver will avoid most of the disadvantages of oral administration of the active compound. Thus, for example, FU is a well-known anti-cancer drug which cannot be administered orally. FP is a prodrug which is metabolizabie by hepatic aldehyde oxidase to FU. FP may be given orally to a subject.
# as §7, §5
# [9] = system: metastatic prostate cancer; details: cited from earlier work
compound,measurement,setting,value
O[C@H](CS)[C@H](O)CS (racemic) [Dithiothreitol],IC50,IPdR oxidase,100 µM
same,inhibition of aldehyde oxidase activity,aldehyde oxidase [1]; literature,could be inhibited
CCCCS [1-Butane thiol],product inhibition,IPdR oxidase,Approximately 25%
same,IC50,IPdR oxidase,> 50000 µM
CC=O [Acetaldehyde],IC50,IPdR oxidase,5000 µM
same,inhibition of aldehyde oxidase activity,aldehyde oxidase [1]; literature,inhibited by acetaldehyde
"O=c1ncc(Br)cn1[C@H]1C[C@H](O)[C@@H](CO)O1 [BPdR, 5-bromo-2-pyrimidinone-deoxyribose]",Conversion of RPdR to RUdR,aldehyde oxidase [2],7 ± 2
"O=c1[nH]c(=O)n([C@H]2C[C@H](O)[C@@H](CO)O2)cc1Br [BUdR, 5-bromo-deoxyuridine]",catabolism to the free base,[3],rapid catabolism
same,cytotoxicity limiting effective use as radiosensitizer,[3],limited by their cytotoxicity
N[C@@H](CS)C(=O)O [Cysteine],product inhibition,IPdR oxidase,Approximately 40%
same,IC50,IPdR oxidase,> 50000 µM
same,inhibition of aldehyde oxidase activity,aldehyde oxidase [1]; at 5 mM,no significant inhibition
same,inhibition of aldehyde oxidase activity,aldehyde oxidase [1]; at 50 mM,potent inhibition
"C#Cc1cnc(=O)n([C@H]2C[C@H](O)[C@@H](CO)O2)c1 [EPdR, 5-ethynyl-2-pyrimidinone-deoxyribose]",Conversion of RPdR to RUdR,aldehyde oxidase [2],20 ± 4
same,Km,[4]; pH 7.5,77 µM
same,Km,[4]; pH 9.5,46 µM
"CCc1cnc(=O)n([C@H]2C[C@H](O)[C@@H](CO)O2)c1 [EtPdR, 5-ethyl-2-pyrimidinone-deoxyribose]",Products of the reaction,aldehyde oxidase [2],not detected
same,Conversion of RPdR to RUdR,aldehyde oxidase [2],< 0.1
"Oc1ncc(F)cn1 [FP, 5-fluoro-2-pyrimidinone]",Conversion of RPdR to RUdR,aldehyde oxidase [2],20
same,metabolism to FU by hepatic aldehyde oxidase in vivo,hepatic aldehyde oxidase [5],metabolizable to FU
same,"reduction in tumor size or reduction in its growth rate, FU versus FP",colon 38 cells,comparable between FU and FP
same,LD50,[6],180 mg/kg
same,Death/Total,BDF1 mice; 100 mg/kg p.o.,5/5
same,Death/Total,BDF1 mice; 150 mg/kg p.o.,4/5
same,Death/Total,BDF1 mice; 200 mg/kg p.o.,0/5
same,toxicity of FP compared with FU,"BDF1 mice; oral, even when higher dosages were administered",considerably less
same,"weight gain, male and female",Transgenic mice; after week 13,significantly decreased weight gain
same,"body weight increase, female","Transgenic mice; female, 100 mg/kg two times per day, once per week",slower increase in body weight
same,"survival, female","Transgenic mice; female, versus control, which died at week 16",lived longer; also recorded: survived the control rat
same,"body weight increase, male","Transgenic mice; male, 100 mg/kg two times per day, once per week",slower increase in body weight
same,"survival, male","Transgenic mice; male, inferred from slower body weight increase",longer survival than control
same,Cures/Total,P388-R leukemia cells; 50 mg/kg oral,0/5
same,ILS (increase in life span over controls),P388-R leukemia cells; 50 mg/kg oral,0%
same,Cures/Total,P388-R leukemia cells; 100 mg/kg oral,0/5
same,ILS (increase in life span over controls),P388-R leukemia cells; 100 mg/kg oral,30%
same,survival time using FP compared to FU,"P388-R leukemia cells; FU 25 and 50, FP 50 and 100 mg/kg oral",as long using FP compared to FU
same,metabolism to FU by hepatic aldehyde oxidase in vitro,hepatic aldehyde oxidase [7],metabolizable to FU
same,effectiveness of FP compared with FU,[8],essentially the same as FU
"O=c1[nH]cc(F)c(=O)[nH]1 [FU, 5-fluoro uracil, reference compound]","reduction in tumor size or reduction in its growth rate, FU versus FP",colon 38 cells,comparable between FU and FP
same,LD50,[6],70 mg/kg
same,Death/Total,BDF1 mice; 50 mg/kg p.o.,5/5
same,Death/Total,BDF1 mice; 75 mg/kg p.o.,2/5
same,Death/Total,BDF1 mice; 100 mg/kg p.o.,1/5
same,Cures/Total,P388-R leukemia cells; 25 mg/kg oral,0/5
same,ILS (increase in life span over controls),P388-R leukemia cells; 25 mg/kg oral,5%
same,Cures/Total,P388-R leukemia cells; 50 mg/kg oral,0/5
same,ILS (increase in life span over controls),P388-R leukemia cells; 50 mg/kg oral,25%
OO [Hydrogen peroxide],IC50,IPdR oxidase,10000 µM
NO [Hydroxyl amine],IC50,IPdR oxidase,1000 µM
"O=c1ncc(I)c[nH]1 [IP, 5-iodo-2-pyrimidinone]",substrate quality for aldehyde oxidase,aldehyde oxidase [2]; in words,excellent substrate
same,Conversion of RPdR to RUdR,aldehyde oxidase [2],18 ± 3
"O=c1[nH]c(=O)n([C@H]2C[C@H](O)[C@@H](CO)O2)cc1I [IUdR, iodo-deoxyuridine]",catabolism to the free base,[3],rapid catabolism
same,cytotoxicity limiting effective use as radiosensitizer,[3],limited by their cytotoxicity
same,systemic toxicity limiting clinical usage,[3]; systemic use,limited its clinical usage
"Cc1cnc(=O)n([C@H]2C[C@H](O)[C@@H](CO)O2)c1 [MPdR, 5-methyl-2-pyrimidinone-deoxyribose]",Products of the reaction,aldehyde oxidase [2],not detected
same,Conversion of RPdR to RUdR,aldehyde oxidase [2],< 0.1
"OCCS [Mercaptoethanol, 2-mercaptoethanol]",IC50,IPdR oxidase,1800 µM
same,inhibition of aldehyde oxidase activity,aldehyde oxidase [1]; literature,could be inhibited
C[n+]1cccc(C(N)=O)c1 [N^1 -methylnicotinamide],IC50,IPdR oxidase,1000 µM
same,conversion by hepatic aldehyde oxidase,aldehyde oxidase [1]; to N1-methyl-2-pyridone-5-carboxamide and N1-methyl-4-pyridone-3-carboxamide,converts N^1 -methylnicotinamide
CCCC(C(=O)OCCN(CC)CC)(c1ccccc1)c1ccccc1 [SKF-525A],IC50,IPdR oxidase,30 µM
NC(CO)(CO)CO [Tris buffer],stimulation of aldehyde oxidase activity,aldehyde oxidase [1]; literature,stimulated by potassium ferricyanide and Tris buffer
Cc1ccc(C(=O)Nc2ccc(S(=O)(=O)O)c3cc(S(=O)(=O)O)cc(S(=O)(=O)O)c23)cc1NC(=O)c1cccc(NC(=O)Nc2cccc(C(=O)Nc3cc(C(=O)Nc4ccc(S(=O)(=O)O)c5cc(S(=O)(=O)O)cc(S(=O)(=O)O)c45)ccc3C)c2)c1 [suramin],effectiveness of bolus dosages,[9]; bolus,significantly less effective
same,effective anti-cancer dosage relative to dosage resulting in paralysis,"[9]; human trials, metastatic prostate cancer",very close to the dosage resulting in paralysis
